Reference: ChEMBL document CHEMBL4507256 (2021)

What was measured:
[1] = target: Activin receptor type-1 (Homo sapiens) (UniProt Q04771); conditions: Compound concentration 1000.0 nM
[2] = target: Activin receptor type-2A (Homo sapiens) (UniProt P27037); conditions: Compound concentration 1000.0 nM
[3] = target: Aurora kinase B (Homo sapiens) (UniProt Q96GD4); conditions: Compound concentration 1000.0 nM
[4] = target: Bone morphogenetic protein receptor type-1A (Homo sapiens) (UniProt P36894); conditions: Compound concentration 1000.0 nM
[5] = target: Protein-tyrosine kinase 6 (Homo sapiens) (UniProt Q13882); conditions: Compound concentration 1000.0 nM
[6] = target: Mitotic checkpoint serine/threonine-protein kinase BUB1 (Homo sapiens) (UniProt O43683); conditions: Compound concentration 1000.0 nM
[7] = target: Calcium/calmodulin-dependent protein kinase type 1G (Homo sapiens) (UniProt Q96NX5); conditions: Compound concentration 1000.0 nM
[8] = target: Peripheral plasma membrane protein CASK (Homo sapiens) (UniProt O14936); conditions: Compound concentration 1000.0 nM
[9] = target: Casein kinase II subunit alpha (Homo sapiens) (UniProt P68400); conditions: Compound concentration 1000.0 nM
[10] = target: Serine/threonine-protein kinase DCLK1 (Homo sapiens) (UniProt O15075); conditions: Compound concentration 1000.0 nM
[11] = target: Mitogen-activated protein kinase kinase kinase 12 (Homo sapiens) (UniProt Q12852); conditions: Compound concentration 1000.0 nM
[12] = system: Epidermal growth factor receptor (Homo sapiens), P00533 [UNDEFINED MUTATION]; conditions: Compound concentration 1000.0 nM
[13] = system: Epidermal growth factor receptor (Homo sapiens), P00533 [L861Q]; conditions: Compound concentration 1000.0 nM
[14] = system: Epidermal growth factor receptor (Homo sapiens), P00533 [UNDEFINED MUTATION]; conditions: Compound concentration 1000.0 nM; remark: listed apart in the source
[15] = target: Ephrin type-A receptor 7 (Homo sapiens) (UniProt Q15375); conditions: Compound concentration 1000.0 nM
[16] = target: Receptor-type tyrosine-protein kinase FLT3 (Homo sapiens) (UniProt P36888); conditions: Compound concentration 1000.0 nM
[17] = system: Receptor-type tyrosine-protein kinase FLT3 (Homo sapiens), P36888 [R834Q]; conditions: Compound concentration 1000.0 nM
[18] = target: G protein-coupled receptor kinase 4 (Homo sapiens) (UniProt P32298); conditions: Compound concentration 1000.0 nM
[19] = target: Glycogen synthase kinase-3 alpha (Homo sapiens) (UniProt P49840); conditions: Compound concentration 1000.0 nM
[20] = target: Interleukin-1 receptor-associated kinase 4 (Homo sapiens) (UniProt Q9NWZ3); conditions: Compound concentration 1000.0 nM
[21] = target: Serine/threonine-protein kinase LATS2 (Homo sapiens) (UniProt Q9NRM7); conditions: Compound concentration 1000.0 nM
[22] = target: LIM domain kinase 2 (Homo sapiens) (UniProt P53671); conditions: Compound concentration 1000.0 nM
[23] = target: Mitogen-activated protein kinase kinase kinase 1 (Homo sapiens) (UniProt Q13233); conditions: Compound concentration 1000.0 nM
[24] = target: Mitogen-activated protein kinase kinase kinase kinase 3 (Homo sapiens) (UniProt Q8IVH8); conditions: Compound concentration 1000.0 nM
[25] = target: Serine/threonine-protein kinase MRCK beta (Homo sapiens) (UniProt Q9Y5S2); conditions: Compound concentration 1000.0 nM
[26] = target: Macrophage-stimulating protein receptor (Homo sapiens) (UniProt Q04912); conditions: Compound concentration 1000.0 nM
[27] = target: Serine/threonine-protein kinase 38 (Homo sapiens) (UniProt Q15208); conditions: Compound concentration 1000.0 nM
[28] = target: Serine/threonine-protein kinase Nek2 (Homo sapiens) (UniProt P51955); conditions: Compound concentration 1000.0 nM
[29] = target: Serine/threonine-protein kinase Nek5 (Homo sapiens) (UniProt Q6P3R8); conditions: Compound concentration 1000.0 nM
[30] = target: Serine/threonine-protein kinase Nek7 (Homo sapiens) (UniProt Q8TDX7); conditions: Compound concentration 1000.0 nM
[31] = target: Serine/threonine-protein kinase PAK 5 (Homo sapiens) (UniProt Q9P286); conditions: Compound concentration 1000.0 nM
[32] = target: Phosphatidylinositol 3-kinase C2 domain-containing subunit gamma (Homo sapiens) (UniProt O75747); conditions: Compound concentration 1000.0 nM
[33] = target: cGMP-dependent protein kinase 2 (Homo sapiens) (UniProt Q13237); conditions: Compound concentration 1000.0 nM
[34] = system: Proto-oncogene tyrosine-protein kinase receptor Ret (Homo sapiens), P07949 [M918T]; conditions: Compound concentration 1000.0 nM
[35] = system: Proto-oncogene tyrosine-protein kinase receptor Ret (Homo sapiens), P07949 [V804M]; conditions: Compound concentration 1000.0 nM
[36] = target: Serine/threonine-protein kinase Sgk2 (Homo sapiens) (UniProt Q9HBY8); conditions: Compound concentration 1000.0 nM
[37] = target: Serine/threonine-protein kinase SIK1 (Homo sapiens) (UniProt P57059); conditions: Compound concentration 1000.0 nM
[38] = target: STE20/SPS1-related proline-alanine-rich protein kinase (Homo sapiens) (UniProt Q9UEW8); conditions: Compound concentration 1000.0 nM
[39] = target: Serine/threonine-protein kinase TBK1 (Homo sapiens) (UniProt Q9UHD2); conditions: Compound concentration 1000.0 nM
[40] = target: TRAF2 and NCK-interacting protein kinase (Homo sapiens) (UniProt Q9UKE5); conditions: Compound concentration 1000.0 nM
[41] = target: BDNF/NT-3 growth factors receptor (Homo sapiens) (UniProt Q16620); conditions: Compound concentration 1000.0 nM
[42] = target: Serine/threonine-protein kinase 32C (Homo sapiens) (UniProt Q86UX6); conditions: Compound concentration 1000.0 nM
[43] = target: Tyrosine-protein kinase ZAP-70 (Homo sapiens) (UniProt P43403); conditions: Compound concentration 1000.0 nM
[44] = target: Histamine H3 receptor (Homo sapiens) (UniProt Q9Y5N1); conditions: Compound concentration 10.0 uM
[45] = target: Beta-2 adrenergic receptor (Homo sapiens) (UniProt P07550); conditions: Compound concentration 10.0 uM

Chain of Activin receptor type-1 (Homo sapiens) (Q04771 whole entry): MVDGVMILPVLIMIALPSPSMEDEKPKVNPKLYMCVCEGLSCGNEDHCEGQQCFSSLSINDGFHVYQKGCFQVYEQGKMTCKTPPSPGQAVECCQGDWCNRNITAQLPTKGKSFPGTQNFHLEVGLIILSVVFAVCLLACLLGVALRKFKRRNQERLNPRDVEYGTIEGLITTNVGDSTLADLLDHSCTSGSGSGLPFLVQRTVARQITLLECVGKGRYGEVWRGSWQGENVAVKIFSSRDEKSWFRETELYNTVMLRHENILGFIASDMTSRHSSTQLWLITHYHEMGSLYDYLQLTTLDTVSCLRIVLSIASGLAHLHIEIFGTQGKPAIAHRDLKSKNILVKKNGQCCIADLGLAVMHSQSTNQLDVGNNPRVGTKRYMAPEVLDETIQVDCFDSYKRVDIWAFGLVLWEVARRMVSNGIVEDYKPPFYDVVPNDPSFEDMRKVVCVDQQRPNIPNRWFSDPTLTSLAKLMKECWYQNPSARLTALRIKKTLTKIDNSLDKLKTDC
Chain of Glycogen synthase kinase-3 alpha (Homo sapiens) (P49840 2-483 limits assumed): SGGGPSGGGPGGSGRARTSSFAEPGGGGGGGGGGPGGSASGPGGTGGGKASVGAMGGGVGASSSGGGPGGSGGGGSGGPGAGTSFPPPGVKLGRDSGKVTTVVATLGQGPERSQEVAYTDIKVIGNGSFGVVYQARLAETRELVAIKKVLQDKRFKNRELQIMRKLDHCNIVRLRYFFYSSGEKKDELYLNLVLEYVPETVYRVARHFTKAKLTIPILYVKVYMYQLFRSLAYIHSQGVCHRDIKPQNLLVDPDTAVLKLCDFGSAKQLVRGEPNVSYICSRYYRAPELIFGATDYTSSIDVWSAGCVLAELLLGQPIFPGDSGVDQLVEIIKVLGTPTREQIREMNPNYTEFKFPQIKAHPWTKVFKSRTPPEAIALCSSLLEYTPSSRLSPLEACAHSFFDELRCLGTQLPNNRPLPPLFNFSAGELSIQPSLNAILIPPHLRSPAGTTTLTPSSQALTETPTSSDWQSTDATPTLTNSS
Chain of Interleukin-1 receptor-associated kinase 4 (Homo sapiens) (Q9NWZ3 whole entry): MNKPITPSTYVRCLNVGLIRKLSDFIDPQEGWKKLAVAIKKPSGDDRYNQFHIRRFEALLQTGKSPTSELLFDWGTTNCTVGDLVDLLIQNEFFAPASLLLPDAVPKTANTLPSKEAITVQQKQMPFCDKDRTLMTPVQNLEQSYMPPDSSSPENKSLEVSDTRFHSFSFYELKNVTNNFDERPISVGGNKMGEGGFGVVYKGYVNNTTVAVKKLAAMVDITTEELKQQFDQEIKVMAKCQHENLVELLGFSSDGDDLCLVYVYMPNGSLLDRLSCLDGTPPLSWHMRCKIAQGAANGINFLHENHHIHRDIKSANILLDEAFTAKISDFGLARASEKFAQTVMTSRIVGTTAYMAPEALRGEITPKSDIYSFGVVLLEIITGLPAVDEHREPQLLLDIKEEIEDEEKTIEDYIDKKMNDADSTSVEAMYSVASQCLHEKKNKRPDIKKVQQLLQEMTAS
Chain of Mitogen-activated protein kinase kinase kinase 1 (Homo sapiens) (Q13233 whole entry): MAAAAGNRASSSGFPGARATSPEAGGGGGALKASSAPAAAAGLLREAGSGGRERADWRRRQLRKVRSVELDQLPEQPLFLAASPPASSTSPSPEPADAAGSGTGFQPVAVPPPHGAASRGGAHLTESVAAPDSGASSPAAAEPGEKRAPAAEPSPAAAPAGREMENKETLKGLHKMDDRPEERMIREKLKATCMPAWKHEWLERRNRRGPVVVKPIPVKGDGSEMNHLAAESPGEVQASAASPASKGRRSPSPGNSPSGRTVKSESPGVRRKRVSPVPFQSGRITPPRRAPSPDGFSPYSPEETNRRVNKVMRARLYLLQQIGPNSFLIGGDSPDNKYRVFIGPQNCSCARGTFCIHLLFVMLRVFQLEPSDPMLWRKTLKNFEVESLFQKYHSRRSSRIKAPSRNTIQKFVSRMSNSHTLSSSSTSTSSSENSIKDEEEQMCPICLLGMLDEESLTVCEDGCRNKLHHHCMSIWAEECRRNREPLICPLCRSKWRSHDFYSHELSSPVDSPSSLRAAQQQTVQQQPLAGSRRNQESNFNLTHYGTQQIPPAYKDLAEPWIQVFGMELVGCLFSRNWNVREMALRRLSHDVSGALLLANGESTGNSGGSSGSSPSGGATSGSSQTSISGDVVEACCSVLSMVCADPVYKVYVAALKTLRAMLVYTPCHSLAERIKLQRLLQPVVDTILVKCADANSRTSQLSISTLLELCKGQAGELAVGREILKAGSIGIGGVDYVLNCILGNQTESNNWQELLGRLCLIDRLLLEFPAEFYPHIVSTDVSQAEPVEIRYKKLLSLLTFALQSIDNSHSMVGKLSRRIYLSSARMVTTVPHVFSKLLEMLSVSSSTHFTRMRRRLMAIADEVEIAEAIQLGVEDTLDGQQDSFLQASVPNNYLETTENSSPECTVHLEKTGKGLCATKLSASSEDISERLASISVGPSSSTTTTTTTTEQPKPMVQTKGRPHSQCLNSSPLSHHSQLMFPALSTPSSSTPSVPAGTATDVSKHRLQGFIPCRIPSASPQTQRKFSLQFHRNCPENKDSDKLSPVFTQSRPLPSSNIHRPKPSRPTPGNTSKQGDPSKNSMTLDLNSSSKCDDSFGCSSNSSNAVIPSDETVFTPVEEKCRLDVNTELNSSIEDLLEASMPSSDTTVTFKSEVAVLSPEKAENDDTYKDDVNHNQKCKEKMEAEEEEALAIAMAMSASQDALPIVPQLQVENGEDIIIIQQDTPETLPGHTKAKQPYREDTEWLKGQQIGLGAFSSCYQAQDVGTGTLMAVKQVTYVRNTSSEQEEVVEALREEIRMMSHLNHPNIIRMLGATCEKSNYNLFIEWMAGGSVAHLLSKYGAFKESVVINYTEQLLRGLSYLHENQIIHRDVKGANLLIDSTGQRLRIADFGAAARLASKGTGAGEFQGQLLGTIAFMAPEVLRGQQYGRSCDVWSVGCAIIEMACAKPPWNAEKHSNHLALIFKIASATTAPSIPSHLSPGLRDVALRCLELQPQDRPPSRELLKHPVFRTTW
Chain of Serine/threonine-protein kinase DCLK1 (Homo sapiens) (O15075 whole entry): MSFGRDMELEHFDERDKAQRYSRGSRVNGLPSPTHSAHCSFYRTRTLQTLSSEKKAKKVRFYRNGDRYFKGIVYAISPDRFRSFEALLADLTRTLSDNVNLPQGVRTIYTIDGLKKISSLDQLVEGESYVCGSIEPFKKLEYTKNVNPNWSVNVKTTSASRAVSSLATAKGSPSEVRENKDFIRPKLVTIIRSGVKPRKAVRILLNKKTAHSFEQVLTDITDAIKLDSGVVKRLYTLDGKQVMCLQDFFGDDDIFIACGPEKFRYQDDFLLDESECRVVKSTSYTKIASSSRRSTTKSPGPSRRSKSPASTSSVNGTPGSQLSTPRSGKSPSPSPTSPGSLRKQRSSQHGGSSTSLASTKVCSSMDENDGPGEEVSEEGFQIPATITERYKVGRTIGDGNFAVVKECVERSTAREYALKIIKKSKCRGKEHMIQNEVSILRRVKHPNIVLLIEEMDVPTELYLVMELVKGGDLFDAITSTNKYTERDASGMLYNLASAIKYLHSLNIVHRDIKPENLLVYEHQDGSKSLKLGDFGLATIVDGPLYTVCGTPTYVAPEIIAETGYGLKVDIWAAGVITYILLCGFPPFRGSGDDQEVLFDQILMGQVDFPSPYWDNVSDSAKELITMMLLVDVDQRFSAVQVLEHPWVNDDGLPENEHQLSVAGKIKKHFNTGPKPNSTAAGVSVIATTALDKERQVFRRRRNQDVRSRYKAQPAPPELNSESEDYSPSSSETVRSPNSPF
Chain of Mitotic checkpoint serine/threonine-protein kinase BUB1 (Homo sapiens) (O43683 whole entry, looked up): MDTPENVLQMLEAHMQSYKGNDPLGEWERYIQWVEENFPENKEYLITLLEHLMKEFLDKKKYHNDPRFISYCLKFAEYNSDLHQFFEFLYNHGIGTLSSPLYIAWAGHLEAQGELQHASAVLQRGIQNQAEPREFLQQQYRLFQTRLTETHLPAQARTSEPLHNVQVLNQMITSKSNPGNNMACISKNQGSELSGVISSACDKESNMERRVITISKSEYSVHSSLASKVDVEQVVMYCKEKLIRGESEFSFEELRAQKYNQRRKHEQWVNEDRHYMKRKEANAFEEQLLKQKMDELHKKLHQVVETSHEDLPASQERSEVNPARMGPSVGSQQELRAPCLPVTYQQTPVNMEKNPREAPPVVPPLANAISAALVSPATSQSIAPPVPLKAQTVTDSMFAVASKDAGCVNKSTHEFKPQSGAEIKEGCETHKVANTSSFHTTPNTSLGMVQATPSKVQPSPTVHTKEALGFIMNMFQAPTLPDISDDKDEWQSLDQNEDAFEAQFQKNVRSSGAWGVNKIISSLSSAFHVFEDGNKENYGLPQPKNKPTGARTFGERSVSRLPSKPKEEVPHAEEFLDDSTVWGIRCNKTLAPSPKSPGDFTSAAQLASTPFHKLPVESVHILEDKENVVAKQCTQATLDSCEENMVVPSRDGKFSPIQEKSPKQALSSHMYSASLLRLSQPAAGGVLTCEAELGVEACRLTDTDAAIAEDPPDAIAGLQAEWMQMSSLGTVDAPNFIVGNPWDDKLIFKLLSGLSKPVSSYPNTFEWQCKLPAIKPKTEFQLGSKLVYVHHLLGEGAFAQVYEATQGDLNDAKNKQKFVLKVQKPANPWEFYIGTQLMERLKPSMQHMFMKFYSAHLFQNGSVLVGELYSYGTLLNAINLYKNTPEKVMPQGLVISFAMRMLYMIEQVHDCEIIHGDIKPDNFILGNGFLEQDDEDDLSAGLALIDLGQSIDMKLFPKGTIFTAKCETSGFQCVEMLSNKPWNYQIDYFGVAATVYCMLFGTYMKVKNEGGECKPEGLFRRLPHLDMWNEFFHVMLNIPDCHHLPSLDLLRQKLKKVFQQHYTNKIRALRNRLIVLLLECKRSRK

CCC(=N\O)/C(C)=C/c1ccc(F)c(C)c1 [A-226]
active: residual activity [43] 38%
inactive: residual activity [1] 100% | residual activity [2] 100% | residual activity [3] 100% | residual activity [4] 100% | residual activity [5] 75% | residual activity [6] 100% | residual activity [7] 100% | residual activity [8] 100% | residual activity [9] 100% | residual activity [10] 100% | residual activity [11] 100% | residual activity [12] 100% | residual activity [13] 68% | residual activity [14] 71% | residual activity [15] 92% | residual activity [16] 93% | residual activity [17] 100% | residual activity [18] 100% | residual activity [19] 100% | residual activity [20] 95% | residual activity [21] 75% | residual activity [22] 90% | residual activity [23] 100% | residual activity [24] 98% | residual activity [25] 69% | residual activity [26] 100% | residual activity [27] 95% | residual activity [28] 100% | residual activity [29] 100% | residual activity [30] 100% | residual activity [31] 100% | residual activity [32] 98% | residual activity [33] 97% | residual activity [34] 92% | residual activity [35] 100% | residual activity [36] 100% | residual activity [37] 96% | residual activity [38] 100% | residual activity [39] 93% | residual activity [40] 96% | residual activity [41] 100% | residual activity [42] 100% | inhibition [44] -0.3% | inhibition [45] -1.29%

CCC(=N\O)/C(C)=C/c1ccc(F)cc1 [A-079]
inactive: residual activity [1] 80% | residual activity [2] 100% | residual activity [3] 68% | residual activity [4] 86% | residual activity [5] 100% | residual activity [6] 88% | residual activity [7] 97% | residual activity [8] 70% | residual activity [9] 74% | residual activity [10] 93% | residual activity [11] 76% | residual activity [12] 69% | residual activity [13] 60% | residual activity [14] 59% | residual activity [15] 86% | residual activity [16] 100% | residual activity [17] 80% | residual activity [18] 100% | residual activity [19] 100% | residual activity [20] 100% | residual activity [21] 100% | residual activity [22] 80% | residual activity [23] 63% | residual activity [24] 100% | residual activity [25] 100% | residual activity [26] 100% | residual activity [27] 94% | residual activity [28] 100% | residual activity [29] 84% | residual activity [30] 85% | residual activity [31] 100% | residual activity [32] 75% | residual activity [33] 79% | residual activity [34] 100% | residual activity [35] 100% | residual activity [36] 78% | residual activity [37] 80% | residual activity [38] 94% | residual activity [39] 75% | residual activity [40] 93% | residual activity [41] 66% | residual activity [42] 65% | residual activity [43] 96% | inhibition [44] 4.32% | inhibition [45] 6.61%
